{
  "source": "patent US4226610A",
  "about": "“Herbicidal compounds, preparation thereof and herbicides containing the same” (Meiji Selka Kaisha, Ltd., priority 1978, dated 1980)",
  "key": {"yabugarashi": {"tested_on": "yabugarashi", "assay": "Experiment 1 foliar application to naturally growing weeds", "assay_type": "in vivo, Cayratia japonica Houtt.", "conditions": "4 months", "source_text": "(§1) The detail of the assessment made in the following Experiments of the invention was as follows:\n(§2) Four months after treatment, evaluation was made for inhibition of reproduction expressed in terms of symbols ranging from (-) to (+++) where (-) means no reproduction, namely complete suppression of reproduction, (±) remarkable suppression of reproduction; (+) considerable suppression of reproduction; (++) medium supprestion of reproduction; and (+++) no suppression of reproduction.\n(§3) The compounds of the invention and other compounds for comparison listed in Table 3 were diluted to prescribed concentrations and sprayed to naturally growing weeds by foliar application in an amount of 150 liter per 10 are.\n(§4) 0.1% of octylphenyl polyoxyethanol was added as a surfactant.\n(§5) The killing index (0, no effect, 5, death) after 21 days, and the reproduction-inhibiting effect (-, no reproduction; +++, maximum reproduction) after 2 months (manna grass and cockspar grass) and 4 months (other weeds) were determined."}, "torch azalea": {"tested_on": "torch azalea", "assay": "Experiment 3 foliar application to naturally growing shrubs", "assay_type": "in vivo, Rhododendoron Kaempferi Planch.", "conditions": "after 3 months", "source_text": "as §1, §2\n(§6) The compounds of the invention and other compounds listed in Table 5. were diluted to prescribed concentrations and sprayed onto naturally growing shrubs by foliar application in an amount of 150 liter per 10 are.\n(§7) 0.1% of octylphenyl polyoxyethanol was added as the surfactant. The killing index (0, no effect; 5, death) after 1 month and 3 months, and the reproduction-inhibiting effect (-, no reproduction; +++, maximum reproduction) after 3 months were determined."}, "lace shrub": {"tested_on": "lace shrub", "assay": "Experiment 3 foliar application to naturally growing shrubs", "assay_type": "in vivo, Stephanandra incisa Zabel", "conditions": "after 3 months", "source_text": "as §1, §2, §6, §7"}, "manna grass": {"tested_on": "manna grass", "assay": "Experiment 1 foliar application to naturally growing weeds", "assay_type": "in vivo, Digitaria adsceudes Henr.", "conditions": "2 months", "source_text": "as §1, §2, §3, §4, §5"}, "warunasubi": {"tested_on": "warunasubi", "assay": "Experiment 1 foliar application to naturally growing weeds", "assay_type": "in vivo, Solanum carolinensis L.", "conditions": "4 months", "source_text": "as §1, §2, §3, §4, §5"}, "eulalia": {"tested_on": "eulalia", "assay": "Experiment 2 foliar application in Japanese cypress afforested land", "assay_type": "in vivo, Miscanthus sinensis Andress.", "set-up": "key: 0 = no effect, 5 = death", "conditions": "0.125%; after 3 months", "experimental": "as §1\n(§8) The compounds of the invention and other compounds listed in Table 4. were diluted to prescribed concentrations and sprayed to shrubs by foliar application in a Japanese cypress afforested land in an amount of 150 liter per 10 are.\n(§9) After 30 days and 3 months, the killing index (0, no effect; 5, death) was determined.\n(§10) The heights of plants were 50-70 cm. for Japanese cypress, about 50 cm. for chestnut, 50-90 cm. for miyakozasa, about 100 cm. for eulalia and 70-100 cm. for kumaichigo, respectively."}, "Japanese bush cranberry": {"tested_on": "Japanese bush cranberry", "assay": "Experiment 3 foliar application to naturally growing shrubs", "assay_type": "in vivo, Viburnum dilatatum Thunb.", "conditions": "after 3 months", "source_text": "as §1, §2, §6, §7"}, "white clover": {"tested_on": "white clover", "assay": "Experiment 1 foliar application to naturally growing weeds", "assay_type": "in vivo, Trifolium repens L.", "conditions": "4 months", "source_text": "as §1, §2, §3, §4, §5"}, "kumaichigo": {"tested_on": "kumaichigo", "assay": "Experiment 2 foliar application in Japanese cypress afforested land", "assay_type": "in vivo, Rubus crataegifolius Bunge", "conditions": "0.125%; after 3 months", "experimental": "as §1, §8, §9, §10"}, "yamazakura": {"tested_on": "yamazakura", "assay": "Experiment 3 foliar application to naturally growing shrubs", "assay_type": "in vivo, Prunus donarium Sieb. var. spontanae Makino", "conditions": "after 3 months", "source_text": "as §1, §2, §6, §7"}, "purple nutsedge": {"tested_on": "purple nutsedge", "assay": "Experiment 1 foliar application to naturally growing weeds", "assay_type": "in vivo, Cyperus rotundus L.", "conditions": "4 months", "source_text": "as §1, §2, §3, §4, §5"}, "kiichigo": {"tested_on": "kiichigo", "assay": "Experiment 3 foliar application to naturally growing shrubs", "assay_type": "in vivo, Rubus palmatsu Thunb. forma coptophyllus Makino", "conditions": "after 3 months", "source_text": "as §1, §2, §6, §7"}, "Japanese prickly ash": {"tested_on": "Japanese prickly ash", "assay": "Experiment 3 foliar application to naturally growing shrubs", "assay_type": "in vivo, Xanthoxylum piperitum DC.", "conditions": "after 3 months", "source_text": "as §1, §2, §6, §7"}, "azumanezasa": {"tested_on": "azumanezasa", "assay": "Experiment 1 foliar application to naturally growing weeds", "assay_type": "in vivo, Pleioblastus Chino Makino", "conditions": "4 months", "source_text": "as §1, §2, §3, §4, §5"}, "hedge bindweed": {"tested_on": "hedge bindweed", "assay": "Experiment 1 foliar application to naturally growing weeds", "assay_type": "in vivo, Calystegis hederacea Wall.", "conditions": "4 months", "source_text": "as §1, §2, §3, §4, §5"}, "oak": {"tested_on": "oak", "assay": "Experiment 3 foliar application to naturally growing shrubs", "assay_type": "in vivo, Quercus serrata Thunb", "conditions": "after 3 months", "source_text": "as §1, §2, §6, §7"}, "cockspar grass": {"tested_on": "cockspar grass", "assay": "Experiment 1 foliar application to naturally growing weeds", "assay_type": "in vivo, Echinochloa Crusgalli P. Beauv.", "conditions": "2 months", "source_text": "as §1, §2, §3, §4, §5"}, "chigaya": {"tested_on": "chigaya", "assay": "Experiment 1 foliar application to naturally growing weeds", "assay_type": "in vivo, Imperata cylindrica Beauv.", "conditions": "for Reproduction-inhibiting effect: 4 months", "source_text": "as §1, §2, §3, §4, §5"}},
  "note": "Structures can show the parent of a compound that is named as a salt.",
  "data": [
    {"smiles": "CP(=O)(O)CCC(N)C(=O)O", "note": "(racemic) [DL-2-Amino-4-methylphosphinobutanoic acid monodiethanolammon] [DL-2-Amino-4-methylphosphinobutanoic acid monodiethanolammonium salt]", "values": [
      {"measurement": "Reproduction-inhibiting effect", "setting": "yabugarashi; 0.05%", "value": "+++"},
      {"measurement": "Reproduction-inhibiting effect", "setting": "yabugarashi; 0.1%", "value": "+++"},
      {"measurement": "Reproduction-inhibiting effect", "setting": "yabugarashi; 0.2%", "value": "++"},
      {"measurement": "Reproduction-inhibiting", "setting": "torch azalea; 0.05%", "value": "+++"},
      {"measurement": "Reproduction-inhibiting", "setting": "torch azalea; 0.1%", "value": "++"},
      {"measurement": "Reproduction-inhibiting", "setting": "torch azalea; 0.2%", "value": "-"},
      {"measurement": "Reproduction-inhibiting", "setting": "lace shrub; 0.05%", "value": "+++"},
      {"measurement": "Reproduction-inhibiting", "setting": "lace shrub; 0.1%", "value": "++"},
      {"measurement": "Reproduction-inhibiting", "setting": "lace shrub; 0.2%", "value": "-"},
      {"measurement": "Reproduction-inhibiting effect", "setting": "manna grass; 0.05%", "value": "+++"},
      {"measurement": "Reproduction-inhibiting effect", "setting": "manna grass; 0.1%", "value": "++"},
      {"measurement": "Reproduction-inhibiting effect", "setting": "manna grass; 0.2%", "value": "-"},
      {"measurement": "Reproduction-inhibiting effect", "setting": "warunasubi; 0.05%", "value": "+++"},
      {"measurement": "Reproduction-inhibiting effect", "setting": "warunasubi; 0.1%", "value": "+++"},
      {"measurement": "Reproduction-inhibiting effect", "setting": "warunasubi; 0.2%", "value": "+"},
      {"measurement": "Killing index", "setting": "eulalia", "value": 1.5},
      {"measurement": "Reproduction-inhibiting", "setting": "Japanese bush cranberry; 0.05%", "value": "+++"},
      {"measurement": "Reproduction-inhibiting", "setting": "Japanese bush cranberry; 0.1%", "value": "++"},
      {"measurement": "Reproduction-inhibiting", "setting": "Japanese bush cranberry; 0.2%", "value": "++"},
      {"measurement": "Reproduction-inhibiting effect", "setting": "white clover; 0.05%", "value": "+++"},
      {"measurement": "Reproduction-inhibiting effect", "setting": "white clover; 0.1%", "value": "+++"},
      {"measurement": "Reproduction-inhibiting effect", "setting": "white clover; 0.2%", "value": "-"},
      {"measurement": "Killing index", "setting": "kumaichigo", "value": 1.5},
      {"measurement": "Reproduction-inhibiting", "setting": "yamazakura; 0.05%", "value": "+++"},
      {"measurement": "Reproduction-inhibiting", "setting": "yamazakura; 0.1%", "value": "++"},
      {"measurement": "Reproduction-inhibiting", "setting": "yamazakura; 0.2%", "value": "-"},
      {"measurement": "Reproduction-inhibiting effect", "setting": "purple nutsedge; 0.05%", "value": "+++"},
      {"measurement": "Reproduction-inhibiting effect", "setting": "purple nutsedge; 0.1%", "value": "+++"},
      {"measurement": "Reproduction-inhibiting effect", "setting": "purple nutsedge; 0.2%", "value": "+"},
      {"measurement": "Reproduction-inhibiting", "setting": "kiichigo; 0.05%", "value": "+++"},
      {"measurement": "Reproduction-inhibiting", "setting": "kiichigo; 0.1%", "value": "++"},
      {"measurement": "Reproduction-inhibiting", "setting": "kiichigo; 0.2%", "value": "-"},
      {"measurement": "Reproduction-inhibiting", "setting": "Japanese prickly ash; 0.05%", "value": "+++"},
      {"measurement": "Reproduction-inhibiting", "setting": "Japanese prickly ash; 0.1%", "value": "++"},
      {"measurement": "Reproduction-inhibiting", "setting": "Japanese prickly ash; 0.2%", "value": "-"},
      {"measurement": "Reproduction-inhibiting effect", "setting": "azumanezasa; 0.05%", "value": "+++"},
      {"measurement": "Reproduction-inhibiting effect", "setting": "azumanezasa; 0.1%", "value": "+"},
      {"measurement": "Reproduction-inhibiting effect", "setting": "azumanezasa; 0.2%", "value": "-"},
      {"measurement": "Reproduction-inhibiting effect", "setting": "hedge bindweed; 0.05%", "value": "+++"},
      {"measurement": "Reproduction-inhibiting effect", "setting": "hedge bindweed; 0.1%", "value": "+++"},
      {"measurement": "Reproduction-inhibiting effect", "setting": "hedge bindweed; 0.2%", "value": "+++"},
      {"measurement": "Reproduction-inhibiting", "setting": "oak; 0.05%", "value": "+++"},
      {"measurement": "Reproduction-inhibiting", "setting": "oak; 0.1%", "value": "++"},
      {"measurement": "Reproduction-inhibiting", "setting": "oak; 0.2%", "value": "-"},
      {"measurement": "Reproduction-inhibiting effect", "setting": "cockspar grass; 0.05%", "value": "+++"},
      {"measurement": "Reproduction-inhibiting effect", "setting": "cockspar grass; 0.1%", "value": "++"},
      {"measurement": "Reproduction-inhibiting effect", "setting": "cockspar grass; 0.2%", "value": "-"},
      {"measurement": "Reproduction-inhibiting effect", "setting": "chigaya; 0.05%", "value": "+++"},
      {"measurement": "Killing index of Upperground parts", "setting": "chigaya; 0.05%, 21 days", "value": 2.5},
      {"measurement": "Reproduction-inhibiting effect", "setting": "chigaya; 0.1%", "value": "++"},
      {"measurement": "Reproduction-inhibiting effect", "setting": "chigaya; 0.2%", "value": "-"}
    ]}
  ]
}
